# Tests used:
# HiBit-KRAS^G12C [1] = target: T1, HiBit-KRAS^G12C (Homo sapiens, UniProt P01116, G12C); experiment: HiBit degradation assay in MiaPaCa-2 HiBit-KRas^G12C cells; assay type: cell-based; settings: 24 hours; for DC50: read-out: KRas^G12C-HiBiT (MiaPaCa; 0.5% DMSO) IC50
# In short: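 MiaPaCa-2 cells with CRISPR N-terminal HiBit knock-in on one endogenous KRAS^G12C allele, treated 24 hours at 37° C with compound titrated 10 μM to 20 nM (0.1% or 0.5% DMSO). Lytic HiBit luminescence normalized to DMSO, 4-parameter fit giving DC50 and Dmax; points cytotoxic to […] cells by alamar blue excluded.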
# HiBit-KRAS^G12C [2] = target: T1, HiBit-KRAS^G12C; experiment: HiBit degradation assay in SW1573 HiBit-KRas^G12C cells; assay type: cell-based; set-up: expressed in transfected cells; host or cells: SW1573 (clone E6), modified pcDNA3.1 vector, TK promoter; settings: 24 hours
# In short: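 SW1573 cells stably expressing N-terminally HiBit-tagged KRAS G12C, under the TK promoter, were treated 24 h at 37 °C with 10 μM to 20 nM compound in 0.1% or 0.5% DMSO. Residual HiBit luminescence normalised to DMSO and fitted with a 4-parameter model for DC50 and Dmax. Points with ≥50% viability loss (alamar blue) excluded.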
# [3] = SW1573 HiBit-KRas^G12C, 0.1% DMSO, read-out: KRas^G12C-HIBit (SW1573; 0.1% DMSO) DC50*
# [4] = MiaPaCa-2 HiBit-KRas^G12C cells, 0.5% DMSO
# [5] = SW1573, SW1573 HiBit-KRas^G12C, 0.5% DMSO, read-out: KRas^G12C-HiBiT (SW1573; 0.5% DMSO) Dmax**
# [6] = read-out: KRas^G12C-HiBiT (SW1573; 0.5% DMSO) IC50***, SW1573 HiBit-KRas^G12C, 0.5% DMSO
# [7] = MIA PaCa-2, MiaPaCa-2 HiBit-KRas^G12C cells, 0.5% DMSO, maximum degradation, read-out: KRas^G12C-HiBiT (MiaPaCa; 0.5% DMSO) DMax
# [8] = MIA PaCa-2, MiaPaCa-2 HiBit-KRas^G12C cells, 0.1% DMSO, maximum degradation, read-out: KRas^G12C-HiBiT (MiaPaCa; 0.1% DMSO) DMax
# [9] = SW1573, SW1573 HiBit-KRas^G12C, 0.1% DMSO, read-out: KRas^G12C-HiBit (SW1573; 0.1% DMSO) Dmax**
# T1 sequence (P01116 1-186 isoform P01116-2 G12C limits assumed): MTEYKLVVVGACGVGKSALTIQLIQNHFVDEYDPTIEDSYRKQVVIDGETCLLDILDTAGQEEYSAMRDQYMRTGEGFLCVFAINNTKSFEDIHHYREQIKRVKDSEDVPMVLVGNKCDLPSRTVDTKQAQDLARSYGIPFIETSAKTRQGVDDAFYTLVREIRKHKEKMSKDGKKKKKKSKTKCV
SMILES,DC50 (HiBit-KRAS^G12C [2]; [3]) [nM],DC50 (HiBit-KRAS^G12C [1]; [4]) [nM],Dmax (HiBit-KRAS^G12C [2]; [5]) [%],DC50 (HiBit-KRAS^G12C [2]; [6]) [nM],Dmax (HiBit-KRAS^G12C [1]; [7]) [%],further results
"C=CC(=O)N1CCN(c2nc(O[C@H](C)CN3CC(OC4CCN(CC(=O)N[C@H](C(=O)N5C[C@H](O)C[C@H]5C(=O)N[C@@H](C)c5ccc(-c6scnc6C)cc5)C(C)(C)C)CC4)C3)nc3c(F)c(-c4cc(O)cc5ccccc45)c(Cl)cc23)CC1 [Compound 46, (2S,4R)-1-[(2S)-2-{2-[4-({1-[(2R)-2-{[6-chloro-8-fluoro-7-(3-hydroxynaphthalen-1-yl)-4-[4-(prop-2-enoyl)piperazin-1-yl]quinazolin-2-yl]oxy}propyl]azetidin-3-yl}oxy)piperidin-1-yl]acetamido}-3,3-dimethylbutanoyl]-4-hydroxy-N-[(1S)-1-[4-(4-methyl-1,3-thiazol-5-yl)phenyl]ethyl]pyrrolidine-2-carboxamide]",100 to 1000,–,–,–,–,"Dmax (HiBit-KRAS^G12C [1]; MIA PaCa-2, read-out: KRas^G12C-HiBiT (MiaPaCa; 0.1% DMSO) DMax, MiaPaCa-2 HiBit-KRas^G12C cells, 0.1% DMSO, maximum degradation): < 35%; Dmax (HiBit-KRAS^G12C [1]; MIA PaCa-2, read-out: KRas^G12C-HiBiT (MiaPaCa; 0.5% DMSO) DMax, MiaPaCa-2 HiBit-KRas^G12C cells, 0.5% DMSO, maximum degradation): 35 to 70%; Dmax (HiBit-KRAS^G12C [2]; SW1573, read-out: KRas^G12C-HiBiT (SW1573; 0.5% DMSO) Dmax**, SW1573 HiBit-KRas^G12C, 0.5% DMSO): 35 to 70%; Dmax (HiBit-KRAS^G12C [2]; SW1573, read-out: KRas^G12C-HiBit (SW1573; 0.1% DMSO) Dmax**, SW1573 HiBit-KRas^G12C, 0.1% DMSO): 35 to 70%"
"C=CC(=O)N1CCN(c2nc(OCCN3CCC4(CC3)CN(c3cc([C@@H](C(=O)N5C[C@H](O)C[C@H]5C(=O)N[C@@H](C)c5ccc(-c6scnc6C)cc5)C(C)C)on3)C4)nc3c(F)c(-c4cc(O)cc5ccccc45)c(Cl)cc23)C[C@@H]1CC#N [Compound 137, (2S,4R)-1-[(2S)-2-(3-{7-[2-({6-chloro-4-[(3S)-3-(cyanomethyl)-4-(prop-2-enoyl)piperazin-1-yl]-8-fluoro-7-(3-hydroxynaphthalen-1-yl)quinazolin-2-yl}oxy)ethyl]-2,7-diazaspiro[3.5]nonan-2-yl}-1,2-oxazol-5-yl)-3-methylbutanoyl]-4-hydroxy-N-[(1S)-1-[4-(4-methyl-1,3-thiazol-5-yl)phenyl]ethyl]pyrrolidine-2-carboxamide]",–,> 1000,< 35,100 to 1000,–,–
"C=CC(=O)N1CCN(c2nc(OCCN3CCC(COCC(=O)N[C@H](C(=O)N4C[C@H](O)C[C@H]4C(=O)N[C@@H](C)c4ccc(-c5scnc5C)cc4)C(C)(C)C)CC3)nc3c(F)c(-c4nc(NC)cc5ccccc45)c(Cl)cc23)C[C@@H]1CC#N [Compound 99, (2S,4R)-1-[(2S)-2-[2-({1-[2-({6-chloro-4-[(3S)-3-(cyanomethyl)-4-(prop-2-enoyl)piperazin-1-yl]-8-fluoro-7-[3-(methylamino)isoquinolin-1-yl]quinazolin-2-yl}oxy)ethyl]piperidin-4-yl}methoxy)acetamido]-3,3-dimethylbutanoyl]-4-hydroxy-N-[(1S)-1-[4-(4-methyl-1,3-thiazol-5-yl)phenyl]ethyl]pyrrolidine-2-carboxamide]",–,> 1000,> 70,> 1000,> 70,–
"C=CC(=O)N1CCN(c2nc(OCCN3CCC4(CC3)CN(c3cc([C@H](C(=O)N5C[C@H](O)C[C@H]5C(=O)N[C@@H](C)c5ccc(-c6scnc6C)cc5)C(C)C)on3)C4)nc3c(F)c(-c4cc(O)cc5ccccc45)c(Cl)cc23)C[C@@H]1CC#N (atropisomer, axis not shown) [Compound 107, (2S,4R)-1-[(2R)-2-(3-{7-[2-({6-chloro-4-[(3S)-3-(cyanomethyl)-4-(prop-2-enoyl)piperazin-1-yl]-8-fluoro-7-(3-hydroxynaphthalen-1-yl)quinazolin-2-yl}oxy)ethyl]-2,7-diazaspiro[3.5]nonan-2-yl}-1,2-oxazol-5-yl)-3-methylbutanoyl]-4-hydroxy-N-[(1S)-1-[4-(4-methyl-1,3-thiazol-5-yl)phenyl]ethyl]pyrrolidine-2-carboxamide]",–,< 100,–,< 100,–,"KRas^G12C-HiBiT (MiaPaCa; 0.5% DMSO) DMax (HiBit-KRAS^G12C [1]; MiaPaCa-2 HiBit-KRas^G12C cells, 0.5% DMSO, maximum degradation): B (35 < B < 70); KRas^G12C-HiBiT (SW1573; 0.5% DMSO) Dmax** (HiBit-KRAS^G12C [2]; SW1573 HiBit-KRas^G12C, 0.5% DMSO): B (35 < B < 70)"
"C=CC(=O)N1CCN(c2nc(OCCN3CCC4(CC3)CN(c3cc([C@H](C(=O)N5C[C@H](O)C[C@H]5C(=O)N[C@@H](C)c5ccc(-c6ccnn6C)cc5)C(C)C)on3)C4)nc3c(F)c(-c4cc(O)cc5ccccc45)c(Cl)cc23)C[C@@H]1CC#N (atropisomer, axis not shown) [Compound 116, (2S,4R)-1-[(2R)-2-(3-{7-[2-({6-chloro-4-[(3S)-3-(cyanomethyl)-4-(prop-2-enoyl)piperazin-1-yl]-8-fluoro-7-(3-hydroxynaphthalen-1-yl)quinazolin-2-yl}oxy)ethyl]-2,7-diazaspiro[3.5]nonan-2-yl}-1,2-oxazol-5-yl)-3-methylbutanoyl]-4-hydroxy-N-[(1S)-1-[4-(1-methyl-1H-pyrazol-5-yl)phenyl]ethyl]pyrrolidine-2-carboxamide]",–,100 to 1000,> 70,< 100,> 70,–
"C=CC(=O)N1CCN(c2nc(OCCN3CCC(OCCOc4cc([C@@H](C(=O)N5C[C@H](O)C[C@H]5C(=O)N[C@@H](C)c5ccc(-c6scnc6C)cc5)C(C)C)on4)CC3)nc3c(F)c(-c4cc(O)cc5ccccc45)c(Cl)cc23)C[C@@H]1CC#N [Compound 22, (2S,4R)-1-[(2S)-2-{3-[2-({1-[2-({6-chloro-4-[(3S)-3-(cyanomethyl)-4-(prop-2-enoyl)piperazin-1-yl]-8-fluoro-7-(3-hydroxynaphthalen-1-yl)quinazolin-2-yl}oxy)ethyl]piperidin-4-yl}oxy)ethoxy]-1,2-oxazol-5-yl}-3-methylbutanoyl]-4-hydroxy-N-[(1S)-1-[4-(4-methyl-1,3-thiazol-5-yl)phenyl]ethyl]pyrrolidine-2-carboxamide]",100 to 1000,–,–,–,–,Dmax (HiBit-KRAS^G12C [1]; [8]): < 35%; Dmax (HiBit-KRAS^G12C [2]; [9]): < 35%
"C=CC(=O)N1CCN(c2nc(OCCN3CCC(COCC(=O)N[C@H](C(=O)N4C[C@@H](O)C[C@H]4C(=O)N[C@@H](C)c4ccc(-c5scnc5C)cc4)C(C)(C)C)CC3)nc3c(F)c(-c4cc(O)cc5ccccc45)c(Cl)cc23)C[C@@H]1CC#N (atropisomer, axis not shown) [Compound 162, (2S,4S)-1-[(2S)-2-[2-({1-[2-({6-chloro-4-[(3S)-3-(cyanomethyl)-4-(prop-2-enoyl)piperazin-1-yl]-8-fluoro-7-(3-hydroxynaphthalen-1-yl)quinazolin-2-yl}oxy)ethyl]piperidin-4-yl}methoxy)acetamido]-3,3-dimethylbutanoyl]-4-hydroxy-N-[(1S)-1-[4-(4-methyl-1,3-thiazol-5-yl)phenyl]ethyl]pyrrolidine-2-carboxamide]",–,–,< 35,–,35 to 70,–
"C=CC(=O)N1CCN(c2nc(OCCN3CCC(C)(COc4cc([C@H](C(=O)N5C[C@H](O)C[C@H]5C(=O)N[C@@H](C)c5ccc(-c6scnc6C)cc5)C(C)C)on4)CC3)nc3c(F)c(-c4cc(O)cc5ccccc45)c(Cl)cc23)C[C@@H]1CC#N [Compound 131, (2S,4R)-1-[(2R)-2-[3-({1-[2-({6-chloro-4-[(3S)-3-(cyanomethyl)-4-(prop-2-enoyl)piperazin-1-yl]-8-fluoro-7-(3-hydroxynaphthalen-1-yl)quinazolin-2-yl}oxy)ethyl]-4-methylpiperidin-4-yl}methoxy)-1,2-oxazol-5-yl]-3-methylbutanoyl]-4-hydroxy-N-[(1S)-1-[4-(4-methyl-1,3-thiazol-5-yl)phenyl]ethyl]pyrrolidine-2-carboxamide]",–,100 to 1000,> 70,< 100,> 70,–
"C=CC(=O)N1CCN(c2nc(O[C@H](C)CN3CCC(COCC(=O)N[C@H](C(=O)N4C[C@H](O)C[C@H]4C(=O)N[C@@H](C)c4ccc(-c5scnc5C)cc4)C(C)(C)C)CC3)nc3c(F)c(-c4cc(O)cc5ccccc45)c(Cl)cc23)CC1 [Compound 65, (2S,4R)-1-[(2S)-2-[2-({1-[(2R)-2-{[6-chloro-8-fluoro-7-(3-hydroxynaphthalen-1-yl)-4-[4-(prop-2-enoyl)piperazin-1-yl]quinazolin-2-yl]oxy}propyl]piperidin-4-yl}methoxy)acetamido]-3,3-dimethylbutanoyl]-4-hydroxy-N-[(1S)-1-[4-(4-methyl-1,3-thiazol-5-yl)phenyl]ethyl]pyrrolidine-2-carboxamide]",100 to 1000,–,> 70,–,35 to 70,Dmax (HiBit-KRAS^G12C [1]; [8]): 35 to 70%; Dmax (HiBit-KRAS^G12C [2]; [9]): 35 to 70%
